Source: PubChem BioAssay AID1963861 (Molecular Pharmacology Branch, DTP, NCI, 2024)

Test system: 885724-159-R-J1-PDC KRAS PDC multicell spheroid viability
Experiment: Anticancer human tumor 885724-159-R-J1-PDC patient-derived pancreatic adenocarcinoma cell line growth inhibition [KRAS2]
Conditions: for IC50: curve of first compound; for viability, T/C: stronger effect = lower value
Summary of the method: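 KRAS-mutant tumor cells were grown as spheroids with HUVEC endothelial cells and human MSCs as stroma. Targeted agents were tested alone and with KRAS pathway inhibitors. Doses started at or near clinical Cmax, or 10 microM, descending half-log.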

[1] = second compound 0.0316 µM, first compound 0.0316 µM
[2] = second compound 0.0316 µM, first compound 0.1 µM
[3] = second compound 0.0316 µM, first compound 0.316 µM
[4] = second compound 0.0316 µM, first compound 1 µM
[5] = second compound 0.0316 µM, first compound 3.16 µM
[6] = second compound 0.0316 µM, first compound 10 µM
[7] = second compound 0.1 µM, first compound 0.0316 µM
[8] = second compound 0.1 µM, first compound 0.1 µM
[9] = second compound 0.1 µM, first compound 0.316 µM
[10] = second compound 0.1 µM, first compound 1 µM
[11] = second compound 0.1 µM, first compound 3.16 µM
[12] = second compound 0.1 µM, first compound 10 µM
[13] = second compound 0.316 µM, first compound 0.0316 µM
[14] = second compound 0.316 µM, first compound 0.1 µM
[15] = second compound 0.316 µM, first compound 0.316 µM
[16] = second compound 0.316 µM, first compound 1 µM
[17] = second compound 0.316 µM, first compound 3.16 µM
[18] = second compound 0.316 µM, first compound 10 µM
[19] = second compound 1 µM, first compound 0.0316 µM
[20] = second compound 1 µM, first compound 0.1 µM
[21] = second compound 1 µM, first compound 0.316 µM
[22] = second compound 1 µM, first compound 1 µM
[23] = second compound 1 µM, first compound 3.16 µM
[24] = second compound 1 µM, first compound 10 µM
[25] = second compound 3.16 µM, first compound 0.0316 µM
[26] = second compound 3.16 µM, first compound 0.1 µM
[27] = second compound 3.16 µM, first compound 0.316 µM
[28] = second compound 3.16 µM, first compound 1 µM
[29] = second compound 3.16 µM, first compound 3.16 µM
[30] = second compound 3.16 µM, first compound 10 µM
[31] = second compound 0.0316 µM, first compound 0.00316 µM
[32] = second compound 0.0316 µM, first compound 0.01 µM
[33] = second compound 0.1 µM, first compound 0.00316 µM
[34] = second compound 0.1 µM, first compound 0.01 µM
[35] = second compound 0.316 µM, first compound 0.00316 µM
[36] = second compound 0.316 µM, first compound 0.01 µM
[37] = second compound 1 µM, first compound 0.00316 µM
[38] = second compound 1 µM, first compound 0.01 µM
[39] = second compound 3.16 µM, first compound 0.00316 µM
[40] = second compound 3.16 µM, first compound 0.01 µM
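Also: spheroids exposed to agents for 7 days before readout.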

| Structure (SMILES) | IC50 (second compound 0.0316 µM) [nM] | IC50 (second compound 0.1 µM) [nM] | IC50 (second compound 0.316 µM) [nM] | IC50 (second compound 1 µM) [nM] | IC50 (second compound 3.16 µM) [nM] | viability, T/C [1] [%] | viability, T/C [2] [%] | viability, T/C [3] [%] | viability, T/C [4] [%] | viability, T/C [7] [%] | viability, T/C [8] [%] | viability, T/C [9] [%] | viability, T/C [10] [%] | viability, T/C [13] [%] | viability, T/C [14] [%] | viability, T/C [15] [%] | viability, T/C [19] [%] | viability, T/C [20] [%] | viability, T/C [25] [%] | viability, T/C [26] [%] | further results |
| --- | --- | --- | --- | --- | --- | --- | --- | --- | --- | --- | --- | --- | --- | --- | --- | --- | --- | --- | --- | --- | --- |
| CC(C)NCC(C(=O)N1CCN(c2ncnc3c2C(C)CC3O)CC1)c1ccc(Cl)cc1 (stereo not given) + C=CC(=O)N1CCN(c2nc(OCC3CCCN3C)nc3c2CCN(c2cccc4cccc(C)c24)C3)CC1CC#N | > 10000 | > 10000 | > 10000 | > 10000 | 43.6 | 84.5 | 83.1 | 81.1 | 75.4 | 90.8 | 79.2 | 69.9 | 65.9 | 89.3 | 74.3 | 67.9 | 83.5 | 72.5 | 55.9 | 37 | viability, T/C [5]: 75.6%; viability, T/C [6]: 62.5%; viability, T/C [11]: 79%; viability, T/C [12]: 56.9%; viability, T/C [16]: 68.9%; viability, T/C [17]: 69.8%; viability, T/C [18]: 57.2%; viability, T/C [21]: 61.5%; viability, T/C [22]: 58.7%; viability, T/C [23]: 61.4%; viability, T/C [24]: 48.3%; viability, T/C [27]: 33.8%; viability, T/C [28]: 26.8%; viability, T/C [29]: 16.4%; viability, T/C [30]: 6.38% |
| CC1(C)CCC(CN2CCN(c3ccc(C(=O)NS(=O)(=O)c4ccc(NCC5CCOCC5)c([N+](=O)[O-])c4)c(Oc4cnc5[nH]ccc5c4)c3)CC2)=C(c2ccc(Cl)cc2)C1 + C=CC(=O)N1CCN(c2nc(OCC3CCCN3C)nc3c2CCN(c2cccc4cccc(C)c24)C3)CC1CC#N | 4250 | 5180 | 3280 | 3850 | 339 | 99.3 | 100 | 108 | 101 | 115 | 100 | 93.1 | 107 | 100 | 99.8 | 94.8 | 86.1 | 97.8 | 55.2 | 55 | viability, T/C [5]: 64.8%; viability, T/C [6]: 7.81%; viability, T/C [11]: 80.5%; viability, T/C [12]: 9.45%; viability, T/C [16]: 100%; viability, T/C [17]: 51.3%; viability, T/C [18]: 9.84%; viability, T/C [21]: 87.3%; viability, T/C [22]: 84.5%; viability, T/C [23]: 59%; viability, T/C [24]: 6.08%; viability, T/C [27]: 43.9%; viability, T/C [28]: 35.8%; viability, T/C [29]: 0.97%; viability, T/C [30]: 0.63% |
| CCN1CCN(Cc2ccc(Nc3ncc(F)c(-c4cc(F)c5nc(C)n(C(C)C)c5c4)n3)nc2)CC1 + C=CC(=O)N1CCN(c2nc(OCC3CCCN3C)nc3c2CCN(c2cccc4cccc(C)c24)C3)CC1CC#N | > 1000 | > 1000 | > 1000 | > 1000 | 10 | 91.2 | 89.1 | 89.3 | 89.6 | 75.9 | 74.5 | 77.7 | 91.2 | 78 | 78.4 | 76.6 | 78.1 | 68.5 | 46 | 41.3 | viability, T/C [31]: 105%; viability, T/C [32]: 102%; viability, T/C [33]: 93.1%; viability, T/C [34]: 93.6%; viability, T/C [35]: 101%; viability, T/C [36]: 88.1%; viability, T/C [16]: 82.5%; viability, T/C [37]: 75.7%; viability, T/C [38]: 86.1%; viability, T/C [21]: 72.4%; viability, T/C [22]: 82.3%; viability, T/C [39]: 53.1%; viability, T/C [40]: 54.1%; viability, T/C [27]: 49.4%; viability, T/C [28]: 47.6% |
| Cn1ncnc1[C@H]1c2n[nH]c(=O)c3cc(F)cc(c23)N[C@@H]1c1ccc(F)cc1 + C=CC(=O)N1CCN(c2nc(OCC3CCCN3C)nc3c2CCN(c2cccc4cccc(C)c24)C3)CC1CC#N | > 100 | > 100 | > 100 | > 100 | > 100 | 97.8 | 96.1 | – | – | 106 | 89.5 | – | – | 112 | 88.6 | – | 102 | 99.4 | 59.5 | 59.7 | viability, T/C (second compound 0.0316 µM, first compound 0.000316 µM): 115%; viability, T/C (second compound 0.0316 µM, first compound 0.001 µM): 117%; viability, T/C [31]: 108%; viability, T/C [32]: 103%; viability, T/C (second compound 0.1 µM, first compound 0.000316 µM): 106%; viability, T/C (second compound 0.1 µM, first compound 0.001 µM): 108%; viability, T/C [33]: 98.7%; viability, T/C [34]: 108%; viability, T/C (second compound 0.316 µM, first compound 0.000316 µM): 110%; viability, T/C (second compound 0.316 µM, first compound 0.001 µM): 111%; viability, T/C [35]: 106%; viability, T/C [36]: 102%; viability, T/C (second compound 1 µM, first compound 0.000316 µM): 100%; viability, T/C (second compound 1 µM, first compound 0.001 µM): 114%; viability, T/C [37]: 108%; viability, T/C [38]: 101%; viability, T/C (second compound 3.16 µM, first compound 0.000316 µM): 69.6%; viability, T/C (second compound 3.16 µM, first compound 0.001 µM): 61.4%; viability, T/C [39]: 63.3%; viability, T/C [40]: 67.7% |
